The values that follow come from patent publication US20010044382A1, “Herbicide” (priority 1998, published 2001).

Common to all, as to format: in vivo
The test system of one assay is Cyperus. As to the kind of experiment: Post-emergence test (greenhouse), herbicidal action. To be noted: primisulfuron 20 g/ha, after 20 days. As to the method:
(§1) Experiment Description—Post-emergence Test:
(§2) The test plants are grown to the 2- to 3-leaf stage in plastics pots under greenhouse conditions. A standard soil is used as cultivation substrate. At the 2- to 3-leaf stage, the herbicide is applied to the test plants on its own and as a mixture. The application is carried out using an aqueous suspension of the test compounds in 500 liters of water/ha. The rates of application depend on the optimum doses ascertained under field conditions and greenhouse conditions. The tests are evaluated after 20 days (% action, 100%=plant has died, 0%=no phytotoxic action).

A further assay relates to Ipomoea. Description: Pre-emergence test (greenhouse), herbicidal action. As to the method:
(§3) Experiment Description—Pre-emergence Test:
(§4) The test plants are sown in standard soil in plastics pots under greenhouse conditions. Directly after sowing, the test compounds are applied in aqueous suspension (500 liters of water/ha). The test plants are then grown on in the greenhouse under optimum conditions. The rates of application depend on the optimum doses ascertained under field conditions and greenhouse conditions. The tests are evaluated after 26 days (% action, 100%=plants have died, 0%=no phytotoxic action).

A further assay has as its system Polygonum. As to the kind of experiment: Pre-emergence test (greenhouse), herbicidal action. As for the experimental part: as §3, §4
For another assay, the system named is Xanthium. Description: Pre-emergence test (greenhouse), herbicidal action. As for the experimental part:
as §3, §4

A further assay concerns Digitaria. As to the kind of experiment: Post-emergence test (greenhouse), herbicidal action. To be noted: halosulfuron 100 g/ha, after 20 days. As for the experimental part: as §1, §2
[1] abbreviates: atrazine 200 g/ha, after 26 days (Table 7).
Where [2] appears, read: atrazine 200 g/ha, after 26 days (Table 5).
Setting [3] is: terbuthylazine 200 g/ha, after 26 days (Table 4).
The mark [4] stands for this setting: terbuthylazine 200 g/ha, after 26 days (Table 6).

On to `O=C(Nc1nc(OC(F)F)cc(OC(F)F)n1)NS(=O)(=O)c1ccccc1C(=O)O` [Primisulfuron, primisulfuron], for which the “% action” value in the assay with Cyperus is reported as 90%.

Consider `CCNc1nc(Cl)nc(NC(C)C)n1` [Atrazine, atrazine], for which the “% action” value was found to be 70% in the assay with Ipomoea (setting [1]), 90% in the assay with Polygonum (setting [2]), 0% with Xanthium (setting [2]) and 0% in the assay with Xanthium (setting [1]).

For the compound `CCNc1nc(Cl)nc(NC(C)(C)C)n1` [Terbuthylazine, terbuthylazine], the “% action” value came to 30% with Ipomoea (setting [3]); 30% with Ipomoea (setting [4]); 60% with Polygonum (setting [3]); 60% in the assay on Polygonum (setting [4]); 0% in the assay on Xanthium (setting [3]); 0% in the assay on Xanthium (setting [4]).

In the case of `COc1cc(OC)nc(NC(=O)NS(=O)(=O)c2c(C(=O)O)c(Cl)nn2C)n1` [Halosulfuron, halosulfuron], the “% action” value in the assay with Digitaria was 25%.
